Experimental data taken from patent US20210253582A1, “SALTS AND SOLID FORMS AND PROCESSES OF PREPARING A PI3K INHIBITOR” (Incyte Corporation, priority 2020, published 2021).

Molecular target: T1, PI3K (Homo sapiens, UniProt O00329)
T1 construct: purchased Millipore (Bedford, Mass.)
Assay: PI3K enzyme assays (at least one assay described herein)
Format: biochemical
Details: according to at least one assay described herein; assay not specified
Text: PI3-Kinase luminescent assay kit including lipid kinase substrate, D-myo-phosphatidylinositol 4,5-bisphosphate (PtdIns(4,5)P2)D (+)-sn-1,2-di-O-octanoylglyceryl, 3-O-phospho linked (PIP2), biotinylated I(1,3,4,5)P4, PI(3,4,5)P3 Detector Protein is purchased from Echelon Biosciences (Salt Lake City, Utah). AlphaScreen™ GST Detection Kit including donor and acceptor beads was purchased from PerkinElmer Life Sciences (Waltham, Mass.). PI3Kδ (p110δ/p85α) is purchased from Millipore (Bedford, Mass.). ATP, MgCl2, DTT, EDTA, HEPES and CHAPS are purchased from Sigma-Aldrich (St. Louis, Mo.).
The kinase reaction are conducted in 384-well REMP plate from Thermo Fisher Scientific in a final volume of 40 μL. Inhibitors are first diluted serially in DMSO and added to the plate wells before the addition of other reaction components. The final concentration of DMSO in the assay is 2%. The PI3K assays are carried out at room temperature in 50 mM HEPES, pH 7.4, 5 mM MgCl2, 50 mM NaCl, 5 mM DTT and CHAPS 0.04%. […] The activity of the product is determined on Fusion-alpha microplate reader (Perkin-Elmer). […]
The kinase reactions are conducted in clear-bottom 96-well plate from Thermo Fisher Scientific in a final volume of 24 μL. […] After the plate sealing, the radioactivity of the product is determined by scintillation counting on Topcount (Perkin-Elmer). […]

T1 sequence (O00329 whole entry): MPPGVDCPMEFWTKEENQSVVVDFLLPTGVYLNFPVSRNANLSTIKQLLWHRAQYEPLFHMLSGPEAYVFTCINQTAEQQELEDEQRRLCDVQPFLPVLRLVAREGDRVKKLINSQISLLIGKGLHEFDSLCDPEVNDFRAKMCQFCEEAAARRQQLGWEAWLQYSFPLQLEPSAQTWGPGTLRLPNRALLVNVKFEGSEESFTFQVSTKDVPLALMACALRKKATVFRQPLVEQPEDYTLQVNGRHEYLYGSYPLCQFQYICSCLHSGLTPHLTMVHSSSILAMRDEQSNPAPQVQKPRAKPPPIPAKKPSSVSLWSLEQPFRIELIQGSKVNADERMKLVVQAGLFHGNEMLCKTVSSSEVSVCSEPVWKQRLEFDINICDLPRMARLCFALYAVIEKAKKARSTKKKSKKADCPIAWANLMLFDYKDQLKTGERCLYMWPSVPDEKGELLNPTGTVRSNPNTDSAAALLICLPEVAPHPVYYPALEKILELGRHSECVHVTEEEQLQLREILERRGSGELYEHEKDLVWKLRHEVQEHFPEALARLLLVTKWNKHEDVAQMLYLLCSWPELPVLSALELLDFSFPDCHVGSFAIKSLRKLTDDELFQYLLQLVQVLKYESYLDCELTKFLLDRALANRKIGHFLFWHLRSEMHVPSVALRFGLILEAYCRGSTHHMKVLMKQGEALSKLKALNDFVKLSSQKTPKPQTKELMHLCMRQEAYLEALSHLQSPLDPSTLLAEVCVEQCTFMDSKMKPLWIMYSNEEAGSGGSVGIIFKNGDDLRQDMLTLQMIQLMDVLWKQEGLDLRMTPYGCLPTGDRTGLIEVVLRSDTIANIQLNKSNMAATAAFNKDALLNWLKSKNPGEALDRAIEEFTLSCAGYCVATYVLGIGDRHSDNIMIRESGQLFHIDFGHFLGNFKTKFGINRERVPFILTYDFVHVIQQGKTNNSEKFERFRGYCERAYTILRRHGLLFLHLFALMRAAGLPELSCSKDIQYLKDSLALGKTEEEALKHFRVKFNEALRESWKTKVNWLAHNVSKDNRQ
T1 sequence (P27986 whole entry partner): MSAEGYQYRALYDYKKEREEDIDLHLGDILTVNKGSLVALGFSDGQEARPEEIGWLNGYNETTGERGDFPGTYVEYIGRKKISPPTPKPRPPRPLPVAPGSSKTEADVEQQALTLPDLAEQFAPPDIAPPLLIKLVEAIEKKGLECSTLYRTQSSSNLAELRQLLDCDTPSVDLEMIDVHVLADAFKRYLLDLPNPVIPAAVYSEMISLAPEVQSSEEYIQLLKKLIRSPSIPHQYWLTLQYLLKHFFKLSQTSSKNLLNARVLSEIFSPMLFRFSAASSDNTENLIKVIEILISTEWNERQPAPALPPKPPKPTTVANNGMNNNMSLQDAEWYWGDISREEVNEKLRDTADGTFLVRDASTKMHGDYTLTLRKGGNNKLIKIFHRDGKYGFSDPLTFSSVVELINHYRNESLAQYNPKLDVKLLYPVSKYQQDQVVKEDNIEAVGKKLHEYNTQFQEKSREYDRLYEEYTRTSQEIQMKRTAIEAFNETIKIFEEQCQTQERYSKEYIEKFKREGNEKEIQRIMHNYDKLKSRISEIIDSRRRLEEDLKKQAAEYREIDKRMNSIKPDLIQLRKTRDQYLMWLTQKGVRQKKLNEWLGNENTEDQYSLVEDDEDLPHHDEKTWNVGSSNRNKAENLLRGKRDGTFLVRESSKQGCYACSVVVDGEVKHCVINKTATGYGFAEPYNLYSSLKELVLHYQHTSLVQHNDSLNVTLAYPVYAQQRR

PI3K inhibition (qualitative statement): found to be PI3K inhibitors
SMILES: CCOc1c([C@H](C)n2nc(C)c3c(N)ncnc32)cc(Cl)c(F)c1[C@@H]1CNC(=O)O1 [compound of Formula I, (R)-5-(3-((S)-1-(4-amino-3-methyl-1H-pyrazolo[3,4-d]pyrimidin-1-yl)ethyl)-5-chloro-2-ethoxy-6-fluorophenyl)oxazolidin-2-one]
